Experimental data from US20110060268A1, “NAIL TREATMENT DEVICE” (POWER PAPER LTD., priority 2008, published 2011).
Where a name gives a salt, the structure may show the parent alone.

Key:
Assay type in all cases: in vivo, patients
[1] = system: distal and lateral subungual toenail onychomycosis; assay: Clinical trial in toenail onychomycosis: healthy toenail growth
Method: (§1) A clinical trial was conducted to evaluate delivery of terbinafine HCl with an iontophoretic device according to an aspect of the present invention in patients with toenail onychomycosis. 38 patients suffering from distal and lateral subungual toenail onychomycosis were enrolled into the study and were divided randomly into group A (20 subjects) and group B (18 subjects). Onychomycosis was confirmed by both KOH examination and mycological culture, wherein samples were taken from the distal parts of the nail. Nail samples were divided, one part being used for direct KOH examination and the second part for fungal culture using Sabouraud's Dextrose agar (Novamed, Jerusalem, Israel). The identification of the fungus was done on the basis of morphologic characteristics. Group A was tested with 1% terbinafine HCl and an iontophoretic patch using a constant current density of 100 μA/cm^2. Group B was tested with 1% terbinafine HCl without iontophoresis. Treatment period was overnight wear, every day, five days per week, for 4 weeks. During the treatment period visits were conducted every 10 days (visits 2-4). The follow-up period was 10 weeks from the end of treatment (visit 5). At each visit nail photography and KOH examination were performed. […] Terbinafine content in affected nail samples was determined by clipping nails at visits 4 & 5. […] The eluted solution was analysed by HPLC.

[2] = system: fungal elements (KOH) in nail specimens; assay: Clinical trial in toenail onychomycosis: KOH examination for fungal elements in nail specimens; settings: 10 weeks following completion of treatment
Method: as §1

[3] = Terbinafine content in clipped nail samples by HPLC
Method: Group A was tested with 1% terbinafine HCl and an iontophoretic patch using a constant current density of 100 μA/cm^2. Group B was tested with 1% terbinafine HCl without iontophoresis. Treatment period was overnight wear, every day, five days per week, for 4 weeks. During the treatment period visits were conducted every 10 days (visits 2-4). The follow-up period was 10 weeks from the end of treatment (visit 5). At each visit nail photography and KOH examination were performed. Routine blood test; complete blood count and liver functions tests were performed at the before study initiation, at the end of the treatment and at the end of the follow-up period. Terbinafine content in affected nail samples was determined by clipping nails at visits 4 & 5. Nails were then weighed and cut into symmetric shapes in order to estimate their area. Symmetric shapes of nails were then cut into small pieces and inserted into tubes with 0.5 ml DDW. Subsequently, methanol 0.5 ml was added and tubes were sonicated. The eluted solution was analysed by HPLC.

[4] = Clinical trial: safety and tolerability of iontophoretic terbinafine delivery; settings: terbinafine delivered into the nail with the iontophoretic device, nail onychomycosis
Method: as §1

Structure (SMILES): CN(C/C=C/C#CC(C)(C)C)Cc1cccc2ccccc12 [terbinafine, terbinafine HCl]
- percentage of patients having healthy toenail growth above 1.5 mm at the end of treatment ([1]; group A: 1% terbinafine HCl with iontophoretic patch, constant current density 100 μA/cm^2, 4 weeks): 40%
- percentage of patients having healthy toenail growth above 1.5 mm at the end of treatment ([1]; passive group B: 1% terbinafine HCl without current, 4 weeks): 11%
- percentage of patients having fungal elements (KOH) in nail specimens ([2]; active group A (iontophoretic patch, 100 μA/cm^2)): 15%
- percentage of patients having fungal elements (KOH) in nail specimens ([2]; passive group B (without iontophoresis)): 53%
- Terbinafine nail content ([3]; end of follow up period (visit 5), active group A (iontophoretic patch)): 2.41 μg/cm^2
- Terbinafine nail content ([3]; end of follow up period (visit 5), passive group B (without iontophoresis)): 0.15 μg/cm^2
- Terbinafine nail content ([3]; visit 4, passive group B (without iontophoresis)): 1.34 μg/cm^2
- safety and tolerability [4]: safe and well tolerated
